Experimental findings from US20230167073A1 (Teijin Pharma Limited, priority 2020, published 2023) are described below.

Where only a bound is given, the exact number is not on record here.

In the experiment the target is T1, Human TRPC6 (Homo sapiens, UniProt Q9Y210).
T1 construct: expressed in transfected cells
T1 sequence (Q9Y210 1-931): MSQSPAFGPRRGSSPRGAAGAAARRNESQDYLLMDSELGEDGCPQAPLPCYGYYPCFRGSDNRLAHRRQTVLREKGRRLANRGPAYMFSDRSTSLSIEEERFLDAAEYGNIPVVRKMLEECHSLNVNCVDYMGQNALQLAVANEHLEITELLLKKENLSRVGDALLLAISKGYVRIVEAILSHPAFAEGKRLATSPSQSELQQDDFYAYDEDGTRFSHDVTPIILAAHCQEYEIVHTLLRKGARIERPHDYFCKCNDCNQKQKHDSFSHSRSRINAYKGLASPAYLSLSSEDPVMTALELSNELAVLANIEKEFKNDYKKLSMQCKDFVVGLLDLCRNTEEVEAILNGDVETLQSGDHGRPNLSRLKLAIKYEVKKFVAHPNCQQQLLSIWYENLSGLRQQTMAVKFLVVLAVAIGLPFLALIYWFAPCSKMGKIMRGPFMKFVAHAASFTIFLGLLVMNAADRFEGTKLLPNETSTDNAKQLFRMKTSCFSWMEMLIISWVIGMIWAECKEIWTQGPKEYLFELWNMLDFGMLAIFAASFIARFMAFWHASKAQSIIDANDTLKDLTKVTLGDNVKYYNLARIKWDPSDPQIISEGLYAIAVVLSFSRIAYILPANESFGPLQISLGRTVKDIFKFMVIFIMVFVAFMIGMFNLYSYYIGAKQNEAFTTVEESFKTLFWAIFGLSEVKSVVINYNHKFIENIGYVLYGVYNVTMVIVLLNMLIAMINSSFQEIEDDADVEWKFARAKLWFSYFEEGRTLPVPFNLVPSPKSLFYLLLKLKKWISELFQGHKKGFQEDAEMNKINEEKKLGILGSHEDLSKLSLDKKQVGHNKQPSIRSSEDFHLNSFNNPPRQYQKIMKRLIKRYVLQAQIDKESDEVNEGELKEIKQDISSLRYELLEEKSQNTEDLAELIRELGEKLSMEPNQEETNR
The experiment is described as follows: Evaluation of TRPC6 channel inhibitory activity (2), HEK293 cells with stably introduced human TRPC6, OAG stimulation, FLIPR tetra (Compound Nos. 1293 to 1405). The format is cell-based. The note with it: HEK293 cells with stably introduced human TRPC6, OAG 50 μM/0.5% DMSO, read-out: Inhibitory activity (pIC50 class) (converted). The essentials: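 Calcium-dye-loaded HEK293 cells stably expressing human TRPC6 were pretreated with compound for 25 min, then stimulated with 50 μM OAG (0.5% DMSO) in Ca ringer buffer pH 7.2 with 2 mM CaCl2. Background-subtracted FLIPR calcium peaks were normalized to OAG (100%) and buffer (0%); pIC50 came from four-parameter logistic fit, binned as +/++/+++.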
`Cc1cc(Oc2cc(Cl)ccc2-c2ncc(CCN)cn2)cc(N2CCOCC2)n1` [compound 1311, 2-[2-[4-chloro-2-(2-methyl-6-morpholin-4-ylpyridin-4-yl)oxyphenyl]pyrimidin-5-yl]ethanamine]: the IC50 is 10 to 1000 nM.
In the case of `Cn1nc([C@H]2CCCOC2)cc1Oc1cc(C#N)ccc1-c1ccc(CN)cn1` [compound 1330, 4-[5-(aminomethyl)pyridin-2-yl]-3-[2-methyl-5-[(3R)-oxan-3-yl]pyrazol-3-yl]oxybenzonitrile], the IC50 was below 10 nM.
Under `Cn1nc(-c2ccccn2)cc1Oc1cc(C#N)ccc1-c1cc(Cl)c(CN)cn1` [compound 1316, 4-[5-(aminomethyl)-4-chloropyridin-2-yl]-3-(2-methyl-5-pyridin-2-ylpyrazol-3-yl)oxybenzonitrile] stands below 10 nM; under `Cn1nc([C@@H]2CCOC2)cc1Oc1cc(Cl)ccc1-c1ncc(CN)cn1` [compound 1356, [2-[4-chloro-2-[2-methyl-5-[(3S)-oxolan-3-yl]pyrazol-3-yl]oxyphenyl]pyrimidin-5-yl]methanamine], 10 to 1000 nM; under `Cc1cc(Oc2cc(Cl)ccc2-c2ncc([C@@H](F)CN)cn2)cc(N2CCOCC2)n1` [compound 1336, (2R)-2-[2-[4-chloro-2-(2-methyl-6-morpholin-4-ylpyridin-4-yl)oxyphenyl]pyrimidin-5-yl]-2-fluoroethanamine], 10 to 1000 nM.
The figure for `Cc1cc(Oc2cc(Cl)ccc2-c2ncc([C@H](F)CN)cn2)cc(N2CCOCC2)n1` [compound 1337, (2S)-2-[2-[4-chloro-2-(2-methyl-6-morpholin-4-ylpyridin-4-yl)oxyphenyl]pyrimidin-5-yl]-2-fluoroethanamine] is below 10 nM; for `Cn1nc(C2CC2)cc1Oc1cc(Cl)ccc1-c1ncc([C@H](F)CN)cn1` [compound 1347, (2S)-2-[2-[4-chloro-2-(5-cyclopropyl-2-methylpyrazol-3-yl)oxyphenyl]pyrimidin-5-yl]-2-fluoroethanamine] it is 10 to 1000 nM; for `Cn1nc(-c2ccccn2)cc1Oc1cc(C#N)ccc1-c1ccc([C@H](F)CN)cn1` [compound 1302, 4-[5-[(1S)-2-amino-1-fluoroethyl]pyridin-2-yl]-3-(2-methyl-5-pyridin-2-ylpyrazol-3-yl)oxybenzonitrile] it is below 10 nM.
The figure for `Cn1nc([C@H]2CCOC2)cc1Oc1cc(Cl)ccc1-c1ncc([C@H](F)CN)cn1` [compound 1344, (2S)-2-[2-[4-chloro-2-[2-methyl-5-[(3R)-oxolan-3-yl]pyrazol-3-yl]oxyphenyl]pyrimidin-5-yl]-2-fluoroethanamine] is above 1000 nM; for `COc1nc(-c2ccc(C#N)cc2Oc2cc(-c3ccccn3)nn2C)ncc1[C@@H](O)CN` [compound 1327, 4-[5-[(1R)-2-amino-1-hydroxyethyl]-4-methoxypyrimidin-2-yl]-3-(2-methyl-5-pyridin-2-ylpyrazol-3-yl)oxybenzonitrile] it is 10 to 1000 nM.
Regarding `Cn1nc(C2CCOCC2)cc1Oc1cc(C#N)ccc1-c1ncc([C@@H](F)CN)cn1` [compound 1313, 4-[5-[(1R)-2-amino-1-fluoroethyl]pyrimidin-2-yl]-3-[2-methyl-5-(oxan-4-yl)pyrazol-3-yl]oxybenzonitrile], the IC50 was 10 to 1000 nM.
As for `Cc1cc(Oc2cc(Cl)ccc2-c2ccc(CN)cn2)cc(N2CCOCC2)n1` [compound 1321, [6-[4-chloro-2-(2-methyl-6-morpholin-4-ylpyridin-4-yl)oxyphenyl]pyridin-3-yl]methanamine], the IC50 is 10 to 1000 nM.
Regarding `Cc1cc(Oc2cc(C#N)ccc2-c2ccc([C@@H](F)CN)cn2)cc(N2CCOCC2)n1` [compound 1299, 4-[5-[(1R)-2-amino-1-fluoroethyl]pyridin-2-yl]-3-(2-methyl-6-morpholin-4-ylpyridin-4-yl)oxybenzonitrile], the IC50 is below 10 nM.
Under `Cc1cc(Oc2cc(C#N)ccc2-c2ccc(CN)c(C)n2)cc(N2CCOCC2)n1` [compound 1304, 4-[5-(aminomethyl)-6-methylpyridin-2-yl]-3-(2-methyl-6-morpholin-4-ylpyridin-4-yl)oxybenzonitrile] stands below 10 nM; under `Cn1nc(-c2ccccn2)cc1Oc1cc(C#N)ccc1-c1ncc([C@@H](F)CN)cn1` [compound 1295, 4-[5-[(1R)-2-amino-1-fluoroethyl]pyrimidin-2-yl]-3-(2-methyl-5-pyridin-2-ylpyrazol-3-yl)oxybenzonitrile], below 10 nM; under `Cc1cc(Oc2cc(Cl)ccc2-c2ncc([C@H](O)CN)cn2)cc(N2CCOCC2)n1` [compound 1349, (1S)-2-amino-1-[2-[4-chloro-2-(2-methyl-6-morpholin-4-ylpyridin-4-yl)oxyphenyl]pyrimidin-5-yl]ethanol], 10 to 1000 nM.
Turning to `Cc1cc(Oc2cc(C#N)ccc2-c2ncc3c(n2)CNC3)cc(N2CCOCC2)n1` [compound 1392, 4-(6,7-dihydro-5H-pyrrolo[3,4-d]pyrimidin-2-yl)-3-(2-methyl-6-morpholin-4-ylpyridin-4-yl)oxybenzonitrile], the IC50 was above 1000 nM.
Consider `Cn1nc(-c2ccccn2)cc1Oc1cc(Cl)ccc1-c1ccc([C@@H](F)CN)cn1` [compound 1339, (2R)-2-[6-[4-chloro-2-(2-methyl-5-pyridin-2-ylpyrazol-3-yl)oxyphenyl]pyridin-3-yl]-2-fluoroethanamine], for which the IC50 is below 10 nM.
Regarding `Cc1nc(Oc2cc(Cl)ccc2-c2ncc([C@@H](O)CN)cn2)cc(N2CCOCC2)n1` [compound 1376, (1R)-2-amino-1-[2-[4-chloro-2-(2-methyl-6-morpholin-4-ylpyrimidin-4-yl)oxyphenyl]pyrimidin-5-yl]ethanol], the IC50 is 10 to 1000 nM.
For `Cc1cc(Oc2cc(Cl)ccc2-c2ncc(CN)cn2)cc(N2CCOCC2)n1` [compound 1315, [2-[4-chloro-2-(2-methyl-6-morpholin-4-ylpyridin-4-yl)oxyphenyl]pyrimidin-5-yl]methanamine], the IC50 was 10 to 1000 nM.
For `Cn1nc(-c2ccccn2)cc1Oc1cc(C#N)ccc1-c1nc(Cl)ccc1CN` [compound 1333, 4-[3-(aminomethyl)-6-chloropyridin-2-yl]-3-(2-methyl-5-pyridin-2-ylpyrazol-3-yl)oxybenzonitrile], the IC50 was 10 to 1000 nM.
Turning to `Cn1nc(-c2ccccn2)cc1Oc1cc(C#N)ccc1-c1ncc(C(F)(F)CN)cn1` [compound 1318, 4-[5-(2-amino-1,1-difluoroethyl)pyrimidin-2-yl]-3-(2-methyl-5-pyridin-2-ylpyrazol-3-yl)oxybenzonitrile], the IC50 was 10 to 1000 nM.
The figure for `COc1nc(-c2ccc(C#N)cc2Oc2cc(-c3ccccn3)nn2C)ccc1CN` [compound 1310, 4-[5-(aminomethyl)-6-methoxypyridin-2-yl]-3-(2-methyl-5-pyridin-2-ylpyrazol-3-yl)oxybenzonitrile] is 10 to 1000 nM.
Consider `Cn1nc(C2CC2)cc1Oc1cc(Cl)ccc1-c1ncc([C@@H](F)CN)cn1` [compound 1348, (2R)-2-[2-[4-chloro-2-(5-cyclopropyl-2-methylpyrazol-3-yl)oxyphenyl]pyrimidin-5-yl]-2-fluoroethanamine], for which the IC50 was below 10 nM.
The figure for `Cc1nc(Oc2cc(Cl)ccc2-c2ncc([C@@H](F)CN)cn2)cc(N2CCOCC2)n1` [compound 1374, (2R)-2-[2-[4-chloro-2-(2-methyl-6-morpholin-4-ylpyrimidin-4-yl)oxyphenyl]pyrimidin-5-yl]-2-fluoroethanamine] is 10 to 1000 nM; for `Cc1nc(Oc2cc(Cl)ccc2-c2ncc(CCN)cn2)c(C)c(N2CCOCC2)n1` [compound 1405, 2-[2-[4-chloro-2-(2,5-dimethyl-6-morpholin-4-ylpyrimidin-4-yl)oxyphenyl]pyrimidin-5-yl]ethanamine] it is above 1000 nM; for `Cn1nc(C2CCOCC2)cc1Oc1cc(Cl)ccc1-c1ncc([C@@H](O)CN)cn1` [compound 1389, (1R)-2-amino-1-[2-[4-chloro-2-[2-methyl-5-(oxan-4-yl)pyrazol-3-yl]oxyphenyl]pyrimidin-5-yl]ethanol] it is 10 to 1000 nM.
The figure for `Cn1nc(C2CC2)cc1Oc1cc(Cl)ccc1-c1ncc(CN)cn1` [compound 1355, [2-[4-chloro-2-(5-cyclopropyl-2-methylpyrazol-3-yl)oxyphenyl]pyrimidin-5-yl]methanamine] is 10 to 1000 nM; for `Cc1cc(Oc2cc(C#N)ccc2-c2ccc3c(n2)CNC3)cc(N2CCOCC2)n1` [compound 1297, 4-(6,7-dihydro-5H-pyrrolo[3,4-b]pyridin-2-yl)-3-(2-methyl-6-morpholin-4-ylpyridin-4-yl)oxybenzonitrile] it is 10 to 1000 nM.
